Article PMC11566853, “Chemical genetic analysis of enoxolone inhibition of Clostridioides difficile toxin production reveals adenine deaminase and ATP synthase as antivirulence targets” (The Journal of Biological Chemistry, 2024)

Molecular target: T1, adenine deaminase (Ade) (Clostridioides difficile, UniProt A0A9R0BKJ2)
T1 construct: codon-optimized ade in pWL613a (pET28b derivative), N-terminal His-tag, expressed in E. coli BL21(DE3), Ni-NTA and Superdex 200
Experiment: surface plasmon resonance, His-captured protein
Assay type: binding

T1 sequence (A0A9R0BKJ2 entry or part of it): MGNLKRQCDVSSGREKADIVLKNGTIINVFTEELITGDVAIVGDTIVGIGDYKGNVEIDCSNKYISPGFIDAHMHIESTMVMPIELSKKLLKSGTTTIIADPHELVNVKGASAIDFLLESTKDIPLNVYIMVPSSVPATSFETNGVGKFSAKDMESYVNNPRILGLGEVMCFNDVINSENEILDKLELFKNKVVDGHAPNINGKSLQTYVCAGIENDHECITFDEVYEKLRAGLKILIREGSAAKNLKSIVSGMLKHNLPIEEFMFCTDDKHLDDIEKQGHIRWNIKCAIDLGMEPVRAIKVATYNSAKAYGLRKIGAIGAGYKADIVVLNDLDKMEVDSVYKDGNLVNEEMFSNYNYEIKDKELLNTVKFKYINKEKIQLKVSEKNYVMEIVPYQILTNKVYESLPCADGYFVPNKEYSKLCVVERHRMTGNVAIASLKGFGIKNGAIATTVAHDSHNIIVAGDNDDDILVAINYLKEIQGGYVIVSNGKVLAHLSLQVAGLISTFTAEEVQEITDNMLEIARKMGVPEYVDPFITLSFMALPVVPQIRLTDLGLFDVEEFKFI

Structure (SMILES)	Kd [µM]
Clc1ncnc2[nH]cnc12 [6-chloropurine]	264 ± 42.9
CC1(C)[C@@H](O)CC[C@]2(C)[C@H]3C(=O)C=C4[C@@H]5C[C@@](C)(C(=O)O)CC[C@]5(C)CC[C@@]4(C)[C@]3(C)CC[C@@H]12 [enoxolone]	34.6 ± 13.4
